Source: ChEMBL document CHEMBL1137881, “Synthesis of acyloxymethyl ester prodrugs of the transferable protein farnesyl transferase substrate farnesyl methylenediphosphonate” (Bioorg Med Chem Lett, 2004)

Legend:
Format in all cases: protein-complex assay
[1] = target: T1, Protein farnesyltransferase (Homo sapiens) (UniProt P49354+P49356); assay: Ratio of Kcat to Km for farnesyltransferase
[2] = target: T1, Protein farnesyltransferase (Homo sapiens); assay: Catalytic constant against Farnesyltransferase
[3] = test system: CC(C)=CCC/C(C)=C/CC/C(C)=C/COP(=O)(O)CP(=O)(O)O; assay: (§1) Michaelis-Menten constant against Farnesyltransferase
[4] = test system: CC(C)=CCC/C(C)=C/CC/C(C)=C/COP(=O)(O)OP(=O)(O)O; assay: as §1

Ratio [1] | K cat [2] | Molecule | Km [3] | Km [4]
2e+06 M⁻¹ s⁻¹ | 0.09 s⁻¹ | CC(C)=CCC/C(C)=C/CC/C(C)=C/COP(=O)(O)OP(=O)(O)O |  | 
300000 M⁻¹ s⁻¹ | 0.06 s⁻¹ | CC(C)=CCC/C(C)=C/CC/C(C)=C/COP(=O)(O)CP(=O)(O)O |  | 
 |  | Protein farnesyltransferase (Homo sapiens) (from UniProt P49354+P49356) | 0.18 µM | 0.04 µM
